Measurements taken from patent US20240166658A1, “PORPHYRIN DERIVATIVES AND USES THEREOF” (University of Tasmania, priority 2021, published 2024).

Assay: RGB response, low PFCA concentration
Text: RGB response curves were established by combining solutions of host (12) (5.01×10^−6 M) with solutions of PFOA (0-16 ppm, 3.86×10^−5 M) in dichloromethane. […] Thus, when establishing a calibration curve, the relative proportion of free host to host−PFCA complex limiting the variability of colour response must be considered for the application.
In the “low” PFCA concentration experiment, the RGB response values had the greatest rate of change from 0-40 ppb PFOA and appeared to level out between 40-80 ppb PFOA. In that instance, the regression was fit for a host : guest ratio of 0-0.8. To probe the sensor's response to a mixture of PFCAs, samples containing combinations of PFHxA, PFHpA, and PFDA in dichloromethane (7-28 ppb) were prepared and the RGB responses were collected. The PFCA concentrations for the samples were predicted using the PFOA regression (y=0.0591 ln(x)+0.037, R^2=0.9771).
The RGB response values can differentiate between 0 and 1 ppb PFOA numerically on the regression, but to determine the visual detectability, the ΔE values can be calculated. […] Samples from 0-5 ppb PFOA gave a colour change that could be determined as different from the starting host solution (ΔE=4-8) (Table 11). […] Thus, a conservative visual limit of detection of 10 ppb PFCA may be considered for an untrained observer making threshold analysis.

O=C(Nc1ccccc1-c1c2nc(c(-c3ccccc3NC(=O)C(F)(F)C(F)(F)C(F)(F)C(F)(F)C(F)(F)C(F)(F)C(F)(F)C(F)(F)C(F)(F)C(F)(F)C(F)(F)F)c3ccc([nH]3)c(-c3ccccc3NC(=O)C(F)(F)C(F)(F)C(F)(F)C(F)(F)C(F)(F)C(F)(F)C(F)(F)C(F)(F)C(F)(F)C(F)(F)C(F)(F)F)c3nc(c(-c4ccccc4NC(=O)C(F)(F)C(F)(F)C(F)(F)C(F)(F)C(F)(F)C(F)(F)C(F)(F)C(F)(F)C(F)(F)C(F)(F)C(F)(F)F)c4ccc1[nH]4)C=C3)C=C2)C(F)(F)C(F)(F)C(F)(F)C(F)(F)C(F)(F)C(F)(F)C(F)(F)C(F)(F)C(F)(F)C(F)(F)C(F)(F)F [host (12), α,α,α,α-5,10,15,20-tetrakis(2-(tricosafluorododecanoylamino)phenyl) porphyrin]
ΔE vs host solution (1.3 ppb PFOA): ≥ 2 | conservative visual limit of detection (PFCA, untrained observer, threshold analysis): 10 ppb | ΔE (Host − PFCA) (PFOA 1 ppb): 4 | ΔE (Host − PFCA) (PFOA 3 ppb): 6 | ΔE (Host − PFCA) (PFOA 5 ppb): 8 | ΔE (Host − PFCA) (PFOA 10 ppb): 11 | ΔE (Host − PFCA) (PFOA 21 ppb): 12 | ΔE (Host − PFCA) (PFOA 41 ppb): 15 | ΔE (Host − PFCA) (PFOA 83 ppb): 17 | ΔE vs starting host solution (samples from 0-5 ppb PFOA): 4-8
